Consider two compounds from paper PMC11678245, “The Molecular Basis of the Intrinsic and Acquired Resistance to Azole Antifungals in Aspergillus fumigatus” (Journal of Fungi, 2024).

The test system of experiment [1] is S. cerevisiae strain ADΔΔ (native ScCYP51). Nature of the experiment: MIC80 susceptibility, host strain ADΔΔ. Type of experiment: cell-based. As to conditions: Saccharomyces cerevisiae, Table 2, SD pH 6.8, 48 h, 30 °C. The protocol:
(§1) The susceptibilities of S. cerevisiae strains to antifungal drugs were determined as minimum growth inhibitory concentration (MIC) values in 200 μL SD pH 6.8 [24]. Serial 2-fold dilutions of 100 μL of azole or control drugs in SD pH 6.8 were prepared in a 96-well microtiter plate. A portion of a 2 mL SD pH 6.8 overnight culture of the test strain was inoculated into 3 mL fresh SD pH 6.8 and incubated for 4 to 6 h at 30 °C to generate logarithmic-phase cells. These cells were then diluted with fresh SD pH 6.8 to OD600nm = 0.01 (3 × 10^4 CFU), and 100 μL of this cell suspension was added to microtiter plate wells. Cell growth after 48 h incubation at 30 °C with shaking at 200 rpm was determined at 600 nm using a BioTek™ Synergy™ 2 multi-Mode microplate reader controlled using Gen5™ Data Analysis Software version 3.16.10 (BioTek Instruments, Winooski, VT, USA). MIC80 values (80% growth inhibition in the presence of the test drug compared with the untreated control) for each yeast construct were determined as technical triplicates repeated three times for three separate clones.

Experiment [2] deals with S. cerevisiae strain ADLS overexpressing ScCYP51-6×His. Nature of the experiment: MIC80 susceptibility, strain ADLS. Type of experiment: cell-based, Saccharomyces cerevisiae. As to conditions: Saccharomyces cerevisiae; Table 2; strain ADLS; SD pH 6.8, 48 h, 30 °C; ± SD; read-out: MIC80. The method, then:
as §1

Experiment [3] relates to S. cerevisiae strain A (AfCyp51A-6×His, native ScCyp51 retained). As to the kind of experiment: MIC80 susceptibility, strain A. Type of experiment: cell-based. As to conditions: Saccharomyces cerevisiae, Table 2, SD pH 6.8, 48 h, 30 °C. The protocol:
as §1

Experiment [4] has as its system S. cerevisiae strain AR (AfCyp51A-6×His, AfCprA2-6×His). Nature of the experiment: MIC80 susceptibility, strain AR. Type of experiment: cell-based, Saccharomyces cerevisiae. The method, then: as §1
Experiment [5] relates to S. cerevisiae strain ARE (AfCyp51A-6×His, AfCprA2, AfErg6-FLAG). As to the kind of experiment: MIC80 susceptibility, strain ARE. Type of experiment: cell-based, Saccharomyces cerevisiae. As to conditions: Saccharomyces cerevisiae, strain ARE, ± SD, read-out: MIC80. The protocol: as §1
In experiment [6] the test system is S. cerevisiae strain ARE Y121F (AfCyp51A-6×His Y121F, AfCprA2, AfErg6-FLAG). As to the kind of experiment: MIC80 susceptibility, strain Y121F. Type of experiment: cell-based, Saccharomyces cerevisiae. Particulars: Saccharomyces cerevisiae, ± SD, read-out: MIC80. The protocol: as §1
Experiment [7] concerns S. cerevisiae strain ARE T289A (AfCyp51A-6×His T289A, AfCprA2, AfErg6-FLAG). As to the kind of experiment: MIC80 susceptibility, strain T289A. Type of experiment: cell-based, Saccharomyces cerevisiae. Particulars: for MIC80: Saccharomyces cerevisiae, ± SD, read-out: MIC80. The protocol:
as §1

Experiment [8] deals with S. cerevisiae strain ARE Y121F T289A (AfCyp51A-6×His Y121F T289A, AfCprA2, AfErg6-FLAG). As to the kind of experiment: MIC80 susceptibility, strain Y121F T289A. Particulars: Saccharomyces cerevisiae, ± SD, read-out: MIC80. It counts as cell-based, Saccharomyces cerevisiae. The protocol: as §1
Experiment [9] has as its system S. cerevisiae strain ARE I301T (AfCyp51A-6×His I301T, AfCprA2, AfErg6-FLAG). Nature of the experiment: MIC80 susceptibility, strain I301T. Type of experiment: cell-based, Saccharomyces cerevisiae. As to conditions: Saccharomyces cerevisiae, ± SD, read-out: MIC80. The protocol: as §1
Experiment [10] has as its system S. cerevisiae strain B (AfCyp51B-6×His, native ScCyp51 retained). Nature of the experiment: MIC80 susceptibility, strain B. It counts as cell-based. As to conditions: Saccharomyces cerevisiae, Table 2, SD pH 6.8, 48 h, 30 °C. The protocol: as §1
In experiment [11] the test system is S. cerevisiae strain BR (AfCyp51B-6×His, AfCprA2-6×His). Nature of the experiment: MIC80 susceptibility, strain BR. It counts as cell-based. Particulars: Saccharomyces cerevisiae; Table 2; strain BR; SD pH 6.8, 48 h, 30 °C; ± SD; read-out: MIC80. The method, then: as §1
In experiment [12] the test system is S. cerevisiae strain BRE (AfCyp51B-6×His, AfCprA2, AfErg6-FLAG). As to the kind of experiment: MIC80 susceptibility, strain BRE. Type of experiment: cell-based, Saccharomyces cerevisiae. As to conditions: Saccharomyces cerevisiae, strain BRE, ± SD, read-out: MIC80. The protocol: as §1
The next experiment concerns the target AfCYP51A-6×His (Aspergillus fumigatus, UniProt Q4WNT5). Nature of the experiment: Type II binding of azole drugs (difference spectra). Particulars: AfCYP51A. The protocol: (§2) The concentration of AfCYP51A and AfCYP51B, purified using Ni-NTA affinity chromatography and used for the spectrophotometric type I and type II binding assays, was calculated using an extinction co-efficient of λ417nm = 117 mM^−1 cm^−1 applied to the absolute absorption spectrum of the preparations. In addition, the amount of “active” cytochrome P450 enzyme was determined using the carbon monoxide (CO) binding spectra of these preparations.
(§3) Type II binding difference spectra were obtained using 1 μM of affinity-purified CYP51 enzymes. VCZ, PCZ, VT-1161, DCZ, and MCF working solutions were prepared in DMSO, while FLC was prepared in Milli-Q water. Azole drugs were added to the sample cuvette, and corresponding amounts of DMSO or Milli-Q water were added to the reference cuvette. Drug binding curves were plotted using the difference spectrum peak and trough detected in the range of 410–425 nm. Dissociation constants (Kd) were determined by nonlinear regression (Levenberg–Marquardt algorithm) of the difference in absorbance between the peak and trough against the azole concentration using a rearrangement of the Morrison equation or the Hill equation [7]. GraphPad Prism 9.2.0 software was used to identify the best fit for the data.

For another experiment, the target named is T1, AfCYP51B-6×His (Aspergillus fumigatus, UniProt E9QY26).
T1 sequence (E9QY26 1-524): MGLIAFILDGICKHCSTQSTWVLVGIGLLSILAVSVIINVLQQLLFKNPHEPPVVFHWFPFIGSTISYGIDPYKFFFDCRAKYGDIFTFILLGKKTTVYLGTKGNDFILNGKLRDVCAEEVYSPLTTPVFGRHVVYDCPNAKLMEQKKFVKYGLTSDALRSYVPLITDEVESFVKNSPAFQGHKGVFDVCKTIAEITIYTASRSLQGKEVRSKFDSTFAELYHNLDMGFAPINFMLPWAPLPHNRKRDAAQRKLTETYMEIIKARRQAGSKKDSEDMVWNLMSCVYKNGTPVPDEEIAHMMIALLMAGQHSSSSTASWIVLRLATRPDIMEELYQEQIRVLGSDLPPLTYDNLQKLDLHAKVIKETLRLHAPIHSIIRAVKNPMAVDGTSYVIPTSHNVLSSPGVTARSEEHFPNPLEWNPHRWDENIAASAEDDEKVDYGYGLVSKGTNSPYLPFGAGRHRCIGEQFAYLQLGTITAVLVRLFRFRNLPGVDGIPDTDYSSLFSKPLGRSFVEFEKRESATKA
Described as above. As to conditions: for ΔAmax (type II binding) / Kd: Hill equation; for Hill Number / Kd: type II binding. The method, then:
as §2, §3

[13] abbreviates: Table 2, strain Y121F, SD pH 6.8, 48 h, 30 °C.
The mark [14] stands for this setting: 48 h, pH 6.8, Table 2, strain T289A, SD pH 6.8, 48 h, 30 °C.
Where [15] appears, read: Table 2, strain Y121F T289A, SD pH 6.8, 48 h, 30 °C.
[16] abbreviates: 48 h, pH 6.8, Table 2, strain I301T, SD pH 6.8, 48 h, 30 °C.
Setting [17] is: Table 2, SD pH 6.8, 48 h, 30 °C.

Where “and” joins values, the source holds several entries; their conditions need not be identical. Identical values can stand only once. Like-named read-outs stand apart in the source and are kept apart here.

Sequence of AfCYP51A-6×His (Q4WNT5 whole entry): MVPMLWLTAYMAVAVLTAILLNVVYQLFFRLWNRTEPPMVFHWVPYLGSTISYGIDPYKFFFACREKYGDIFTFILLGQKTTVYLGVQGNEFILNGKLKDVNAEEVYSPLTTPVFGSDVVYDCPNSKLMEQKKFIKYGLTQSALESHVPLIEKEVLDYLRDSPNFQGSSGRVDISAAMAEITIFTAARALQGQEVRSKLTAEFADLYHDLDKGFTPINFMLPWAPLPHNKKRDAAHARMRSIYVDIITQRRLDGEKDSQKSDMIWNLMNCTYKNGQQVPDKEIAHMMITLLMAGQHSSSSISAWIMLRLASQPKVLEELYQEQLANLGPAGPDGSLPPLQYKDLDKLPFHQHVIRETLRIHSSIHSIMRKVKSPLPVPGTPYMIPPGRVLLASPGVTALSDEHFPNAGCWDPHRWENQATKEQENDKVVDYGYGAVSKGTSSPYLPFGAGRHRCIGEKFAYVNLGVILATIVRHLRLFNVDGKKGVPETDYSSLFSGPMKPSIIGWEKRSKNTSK

Take `CC[C@@H]([C@H](C)O)n1ncn(-c2ccc(N3CCN(c4ccc(OC[C@@H]5CO[C@@](Cn6cncn6)(c6ccc(F)cc6F)C5)cc4)CC3)cc2)c1=O` [PCZ, posaconazole]: the MIC80 (in general, an inhibitory concentration at the 80% level, which refers to growth in some studies and to a panel of isolates in others) in [1] worked out at 0.1 ± 0.01 µM; in experiment [2] it was 0.29 ± 0.04 µM; in [3] it was 0.21 ± 0.01 µM; in experiment [4] (Saccharomyces cerevisiae, 48 h, pH 6.8) it was 0.19 ± 0.01 µM; in [4] (Table 2, strain AR, SD pH 6.8, 48 h, 30 °C, ± SD), 0.19 ± 0.02 µM; in experiment [5] (Table 3) it was 0.05 ± 0.017 µM. In addition, the MIC80 was found to be 0.06 ± 0.01 µM in [6] (setting [13]); 0.025 ± 0.003 µM in [6] (Table 3, strain ARE Y121F); 0.06 µM in experiment [7] (setting [14]); 0.043 ± 0.019 µM in experiment [7] (Table 3, strain ARE T289A); 0.11 ± 0.01 µM in [8] (setting [15]); 0.101 ± 0.017 µM in experiment [8] (Table 3, strain ARE Y121F T289A). The MIC80 in experiment [9] (setting [16]) was found to be 0.09 ± 0.02 µM; in experiment [9] (Table 3, strain ARE I301T), 0.055 ± 0.001 µM; in experiment [10] it was 0.25 ± 0.03 µM; in experiment [11], 0.17 ± 0.02 µM; in experiment [12] (setting [17]), 0.1 ± 0.01 µM; in experiment [12] (Table 3) it was 0.06 ± 0.037 µM. Moreover, the “increase in susceptibility of strain T289A compared to strains ARE and ADΔΔ” value in experiment [7] came to 40%. Besides, at AfCYP51A-6×His (1 μM enzyme), the “λpeak (type II difference spectrum)” value was found to be 423 nm. Moreover, the “λtrough (type II difference spectrum)” value is 395 nm at AfCYP51A-6×His (1 μM enzyme) and 388 nm at AfCYP51B-6×His (1 μM enzyme). The “ΔAmax (type II binding)” value at AfCYP51A-6×His (1 μM enzyme, Hill equation) was 0.07; at AfCYP51B-6×His (1 μM enzyme), 0.10. Besides, the “Hill Number” value at AfCYP51A-6×His (type II binding) turned out to be 1.35; at AfCYP51B-6×His it was 1.41. Moreover, the equilibrium dissociation constant (Kd) (as a rule, the free concentration of one partner at which half of the binding sites on the other are occupied at equilibrium, for simple one-to-one binding) was 1.7 µM and 1.72 µM at AfCYP51A-6×His (type II binding, 1 μM enzyme, Hill equation); 2.1 µM and 2.15 µM at AfCYP51B-6×His (1 μM enzyme).

`O[C@@](Cn1cnnn1)(c1ccc(F)cc1F)C(F)(F)c1ccc(-c2ccc(OCC(F)(F)F)cc2)cn1` [VT-1161, oteseconazole]: the MIC80 came out at 0.01 µM in experiment [1]; 0.03 µM in experiment [3]; 0.43 ± 0.05 µM in experiment [5] (setting [17]); 0.53 ± 0.02 µM in experiment [6] (setting [13]); 0.02 µM in [7] (setting [14]); 1.07 ± 0.05 µM in experiment [8] (setting [15]). Besides, the results for the MIC80 in experiment [9] (setting [16]), in experiment [10] and in experiment [12] (setting [17]) were 0.14 ± 0.04 µM, 0.05 ± 0.01 µM and 0.06 ± 0.01 µM, respectively. For the same compound, the “greater susceptibility (MIC80) of strain T289A compared with strain ARE” value in experiment [7] worked out at 21 fold. Further, the “λpeak (type II difference spectrum)” value on AfCYP51B-6×His (1 μM enzyme) was 423 nm. The “λtrough (type II difference spectrum)” value at AfCYP51B-6×His (1 μM enzyme) was determined as 391 nm. Besides, the “ΔAmax (type II binding)” value on AfCYP51B-6×His (1 μM enzyme) stood at 0.11. For the same compound, at AfCYP51B-6×His, the “Hill Number” value is 0.87. This compound also yielded a Kd on AfCYP51B-6×His (1 μM enzyme) of 3.23 ± 2.5 µM.
